Values quoted from earlier work in publication PMC8583936, “Machine Learning Assisted Approach for Finding Novel High Activity Agonists of Human Ectopic Olfactory Receptors” (International Journal of Molecular Sciences, 2021).
Structures can show the parent of a compound that is named as a salt. Where two headings read alike, the source gives them in different places.

Experiments:
OR1A1 = target: T1, OR1A1 (Homo sapiens, UniProt Q9P1Q5); conditions: cited from earlier work
T1 sequence (Q9P1Q5 1-309): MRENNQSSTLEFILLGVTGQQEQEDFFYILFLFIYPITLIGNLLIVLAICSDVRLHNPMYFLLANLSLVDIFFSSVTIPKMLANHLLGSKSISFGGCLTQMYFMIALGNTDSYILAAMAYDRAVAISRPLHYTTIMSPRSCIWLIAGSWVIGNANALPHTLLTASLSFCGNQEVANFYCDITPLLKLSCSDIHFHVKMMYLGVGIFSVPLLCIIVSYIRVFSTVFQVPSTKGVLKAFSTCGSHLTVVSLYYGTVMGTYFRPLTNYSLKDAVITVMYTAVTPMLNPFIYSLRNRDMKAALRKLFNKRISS

OR2W1 = target: T2, OR2W1 (Homo sapiens, UniProt Q9Y3N9); conditions: cited from earlier work
T2 sequence (Q9Y3N9 1-320): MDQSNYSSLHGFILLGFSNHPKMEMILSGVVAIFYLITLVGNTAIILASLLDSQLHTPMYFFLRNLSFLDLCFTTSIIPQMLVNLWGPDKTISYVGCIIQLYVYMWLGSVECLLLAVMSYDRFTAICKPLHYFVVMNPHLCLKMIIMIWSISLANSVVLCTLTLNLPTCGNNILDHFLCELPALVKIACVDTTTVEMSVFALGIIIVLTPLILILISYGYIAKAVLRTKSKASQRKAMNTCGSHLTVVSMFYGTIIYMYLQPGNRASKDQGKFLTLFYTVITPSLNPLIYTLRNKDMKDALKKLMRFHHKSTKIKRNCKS

[1] = Table S1, ref Supplement references [1]-[9] as printed after each odorant name
[2] = Table S2, ref Supplement references [2]-[12] as printed after each odorant name

SMILES	Class (agonist / non-agonist / conflicting info.) for OR1A1 (OR1A1; [1])	Class (agonist / non-agonist / antagonist / conflicting info.) for OR2W1 (OR2W1; [2])	Class (agonist / non-agonist / antagonist / conflicting info.) for OR2W1 (OR2W1)	Class (agonist / non-agonist / conflicting info.) for OR1A1 (OR1A1)
CCCCCCC/C=C/C=O [2-decenal, (2e)-]	Non-agonist	Non-agonist	–	–
CCCCCC/C=C/C=O [2-enonenal]	Non-agonist	Non-agonist	–	–
CCOc1nccs1 [2-ethoxythiazole]	Non-agonist	Agonist	–	–
CCC1(O)C2(C)CCC(C2)C1(C)C (stereo not shown) [2-ethylfenchol]	Conflicting info.	–	Conflicting info.	–
CCCCCC(C)O (stereo not shown) [2-heptanol]	Non-agonist	Agonist	–	–
CCCCCC(C)=O [2-heptanone]	Conflicting info.	Conflicting info.	–	–
CCCCC(C)=O [2-hexanone]	–	–	Agonist	Non-agonist
CCC/C=C/C=O [2-hexenal, (2e)-]	Non-agonist	Non-agonist	–	–
COc1nccnc1CC(C)C [2-isobutyl-3-methoxypyrazine]	Non-agonist	Non-agonist	–	–
COc1nccnc1C(C)C [2-isopropyl-3-methoxypyrazine]	Non-agonist	Non-agonist	–	–
COc1cc(C)ccc1O [2-methoxy-4-methylphenol]	Non-agonist	Non-agonist	–	–
CCCc1ccc(O)c(OC)c1 [2-methoxy-4-propylphenol]	–	–	Non-agonist	Non-agonist
CCC(C)CO (stereo not shown) [2-methyl-1-butanol]	–	–	Non-agonist	Non-agonist
CCC(C)C=O (stereo not shown) [2-methylbutyraldehyde]	Non-agonist	Non-agonist	–	–
Cc1ccccc1O [2-methylphenol]	–	–	Non-agonist	Non-agonist
CCCCCCCC(C)=O [2-nonanone]	Conflicting info.	Agonist	–	–
CCCCCC/C=C\C=O [2-nonenal, (2z)-]	Non-agonist	Non-agonist	–	–
CCCCCCC(C)=O [2-octanone]	Agonist	Agonist	–	–
CCCCC/C=C\C=O [2-octenal, (2z)-]	Non-agonist	Non-agonist	–	–
CCCC(C)=O [2-pentanone]	Non-agonist	Non-agonist	–	–
CCCCCc1ccccn1 [2-pentylpyridine]	Agonist	Agonist	–	–
SCCc1ccccc1 [2-phenylethanethiol]	Agonist	Agonist	–	–
OCCc1ccccc1 [2-phenylethanol]	Non-agonist	Non-agonist	–	–
CCC(=O)C1=NCCC1 [2-propionylpyrroline]	Non-agonist	Non-agonist	–	–
CCCCCCCCC=CC=O [2-undecenal]	Non-agonist	Non-agonist	–	–
CCC(=O)C(=O)CC [3,4-hexanedione]	–	–	Agonist	Non-agonist
CC/C=C\CCOC(C)=O [3-Hexenyl acetate, (3Z)-]	Non-agonist	Non-agonist	–	–

SMILES	Class (agonist / non-agonist / conflicting info.) for OR1A1 (OR1A1; [1])	Class (agonist / non-agonist / antagonist / conflicting info.) for OR2W1 (OR2W1; [2])	Class (agonist / non-agonist / antagonist / conflicting info.) for OR2W1 (OR2W1)	Class (agonist / non-agonist / conflicting info.) for OR1A1 (OR1A1)
CCC(S)C(C)=O (stereo not shown) [3-Mercapto-2-pentanone]	Non-agonist	Non-agonist	–	–
CC(C)(S)CCOC=O [3-Mercapto-3-methylbutyl formate]	Non-agonist	Non-agonist	–	–
CCCC(S)CCOC(C)=O (stereo not shown) [3-Mercaptohexyl acetate]	Agonist	Agonist	–	–
CC(C)CCO [3-Methyl-1-butanol]	Non-agonist	Non-agonist	–	–
Cc1c[nH]c2ccccc12 [3-Methyl-1H-indole]	Non-agonist	Non-agonist	–	–
CCCCCC(=O)C(C)C(C)=O (stereo not shown) [3-Methyl-2,4-nonanedione]	Agonist	Non-agonist	–	–
CCCC(=O)C(C)CC (stereo not shown) [3-Methylheptan-4-one]	Non-agonist	Non-agonist	–	–
O=C(O)CCc1ccccc1 [3-Phenyl propionic acid]	–	–	Non-agonist	Non-agonist
CCCC(S)CCO (stereo not shown) [3-Sulfanylhexan-1-ol]	Non-agonist	Non-agonist	–	–
CCc1cccc(O)c1 [3-ethylphenol]	Non-agonist	Non-agonist	–	–
CCCCC(=O)CC [3-heptanone]	Agonist	Agonist	–	–
CC/C=C\CC=O [3-hexenal, (3z)-]	Non-agonist	Non-agonist	–	–
Cc1cccc(O)c1 [3-methylphenol]	–	–	Non-agonist	Non-agonist
CCCCCC(=O)CC [3-octanone]	Agonist	Agonist	–	–
CCC(=O)OCCCc1ccccc1 [3-phenyl propyl propionate]	–	–	Agonist	Agonist
CCC(C)c1nccnc1OC (stereo not shown) [3-secbutyl-2-methoxypyrazine]	Non-agonist	Non-agonist	–	–
CCCCC(CC)CCC(=O)O (stereo not shown) [4-Ethyloctanoic acid]	Non-agonist	Non-agonist	–	–
CC(=O)CC(C)(C)S [4-Mercapto-4-methyl-2-pentanone]	Non-agonist	Non-agonist	–	–
COC1=C(C)OC(C)C1=O (stereo not shown) [4-Methoxy-2,5-dimethyl-3(2H)-furanone]	Non-agonist	Non-agonist	–	–
COCCC(C)(C)S [4-Methoxy-2-methyl-2-butanethiol]	Non-agonist	Non-agonist	–	–
CC(=O)c1ccc(C)cc1 [4-Methyl acetophenone]	Non-agonist	Agonist	–	–
CCCCC(C)CCC(=O)O (stereo not shown) [4-Methyloctanoic acid]	Non-agonist	Non-agonist	–	–
O=C1CCOc2ccccc21 [4-chromanone]	Agonist	Agonist	–	–
C=Cc1ccc(O)cc1 [4-ethenylphenol]	Non-agonist	Non-agonist	–	–
CCc1ccc(O)cc1 [4-ethylphenol]	Non-agonist	Non-agonist	–	–
CC/C=C\CCC=O [4-heptenal, (4z)-]	Non-agonist	Non-agonist	–	–
